Biological target: T1, P2U2 receptor (Homo sapiens, UniProt Q9BXA5)
T1 construct: The native human receptor was produced in oocytes by cloning the 500 bp 5′ truncation of the full-length kidney cDNA clone; expressed in transfected cells; host or cells: Xenopus laevis oocytes injected with capped in vitro transcribed RNA (pcDNA3 template, T7 polymerase)
T1 sequence (Q9BXA5 1-334): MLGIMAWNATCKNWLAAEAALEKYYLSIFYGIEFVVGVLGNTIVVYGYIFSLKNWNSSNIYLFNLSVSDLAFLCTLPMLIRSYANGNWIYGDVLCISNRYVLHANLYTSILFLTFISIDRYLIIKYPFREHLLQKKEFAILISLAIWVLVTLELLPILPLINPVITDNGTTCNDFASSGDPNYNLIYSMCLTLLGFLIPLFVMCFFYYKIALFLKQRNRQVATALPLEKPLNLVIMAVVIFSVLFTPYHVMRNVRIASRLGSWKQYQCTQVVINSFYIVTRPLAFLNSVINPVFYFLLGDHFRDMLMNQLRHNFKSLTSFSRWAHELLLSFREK
Experiment: Two-electrode voltage clamp of agonist-induced chloride currents in Xenopus oocytes injected with P2U2 receptor cRNA
Assay type: cell-based
Conditions: receptor expressed in Xenopus oocytes; for order of specificity as agonists of the P2U2 receptor: potencies close in value, a mere five-fold difference
Procedure: As indicated above, receptor activation can also be measured by means of the two-electrode voltage clamp assay. In this assay, agonist-induced inward chloride currents are measured in voltage-clamped oocytes that express the P2U2 receptor. The technique suitable for use in the instant invention is described by Julius, et al, Science 241:558-563 (1988). The native human receptor was produced in oocytes by cloning the 500 bp 5' truncation of the full-length kidney cDNA clone into the mammalian expression vector pcDNA3 (Invitrogen). Linearized DNA was used as a template for T7 polymerase (Ambion, Promega) for generation of capped in vitro transcribed mRNA following the suppliers specifications. Adult female Xenopus laevis were anesthetized in […] 3-aminobenzoic acid ethyl ester for 10 minutes and 1 or 2 ovarian lobes were removed, followed by immediate suturing of the incisions. Oocytes were defolliculated at room temperature with collagenase (2 mg/ml) in Ca^+2-free medium (OR-2) for 1-2 hr. Oocytes were stored at […] in ND-96 (96 mM sodium chloride, 2 mM potassium chloride, 1.8 mM calcium chloride, 1 mM magnesium chloride, 5 mM HEPES (N[2-hydroxyethylpiperazine-N'[2-ethanesulfonic acid) with penicillin/streptomycin and injected with 50 nl RNA (1-2 μg/μl) 18-24 h after removal of the oocytes. Before recording, injected oocytes were stored at 18° C. for 2-3 days with daily media changes. A two-electrode voltage clamp (Axon Axoclamp2B) was used to measure agonist-induced currents from individual oocytes. Electrodes were pulled to […] of 0.2-1 MΩ and filled with 3M KCl. Recordings were made at room temperature in ND96 from oocytes clamped at -70 mV using different agonist concentrations. Water-injected oocytes were used as a control.

Structure (SMILES)	activation of the P2U2 receptor	order of specificity as agonists of the P2U2 receptor
Nc1ncnc2c1ncn2[C@@H]1O[C@H](COP(=O)(O)OP(=O)(O)O)[C@@H](O)[C@H]1O [ADP]	activated	UTP>UDP>ADP>ATP
Nc1ncnc2c1ncn2[C@@H]1O[C@H](COP(=O)(O)OP(=O)(O)OP(=O)(O)O)[C@@H](O)[C@H]1O [ATP]	activated	UTP>UDP>ADP>ATP
O=c1ccn([C@@H]2O[C@H](COP(=O)(O)OP(=O)(O)O)[C@@H](O)[C@H]2O)c(=O)[nH]1 [UDP]	activated	UTP>UDP>ADP>ATP
O=c1ccn([C@@H]2O[C@H](COP(=O)(O)OP(=O)(O)OP(=O)(O)O)[C@@H](O)[C@H]2O)c(=O)[nH]1 [UTP]	activated	UTP>UDP>ADP>ATP

Reference: patent US6680373B2, “P2U2 receptor antibodies” (Millennium Pharmaceuticals, Inc., priority 1995, dated 2004)
